Data reported in patent publication US9174952B2, “Substituted 3-thiazoloamino-propionic acid derivatives and their use as pharmaceuticals” (SANOFI, priority 2011, dated 2015).

Target: T1, Recombinant human cathepsin A (Homo sapiens, UniProt P10619)
T1 construct: Recombinant human cathepsin A (residues 29-480, with a C-terminal 10-His tag); 10-His (C); purchased R&D Systems 1049-SE
T1 sequence (P10619 29-326 limits assumed): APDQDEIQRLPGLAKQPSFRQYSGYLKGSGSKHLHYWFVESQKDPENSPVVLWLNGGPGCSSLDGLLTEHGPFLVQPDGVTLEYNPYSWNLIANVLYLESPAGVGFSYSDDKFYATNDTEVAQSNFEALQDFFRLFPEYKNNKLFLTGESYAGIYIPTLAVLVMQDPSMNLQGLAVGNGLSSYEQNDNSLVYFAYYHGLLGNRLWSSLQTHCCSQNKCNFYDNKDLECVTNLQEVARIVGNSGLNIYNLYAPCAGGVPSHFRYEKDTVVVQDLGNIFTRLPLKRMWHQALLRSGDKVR
T1 sequence (P10619 327-480 limits assumed): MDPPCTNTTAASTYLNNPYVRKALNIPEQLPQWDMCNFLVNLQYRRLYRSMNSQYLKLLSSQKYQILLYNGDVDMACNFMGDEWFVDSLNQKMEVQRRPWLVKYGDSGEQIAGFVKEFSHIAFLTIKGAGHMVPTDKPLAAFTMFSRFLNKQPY
Assay: Cathepsin A inhibitory activity
Format: biochemical
Settings: activated recombinant human cathepsin A 833 ng/ml, Bodipy FL-labeled bradykinin substrate 2 μM, pH 5.5, room temperature
Summary of the method: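 Enzyme (residues 29-480, C-terminal His tag) pre-activated by cathepsin L at 37° C, then quenched with E-64. Compound preincubated 15 min at room temperature in 25 mM MES pH 5.5 with 5 mM DTT, then 2 μM Bodipy FL-bradykinin added for 15 min at 833 ng/ml enzyme. Product/substrate separated by microfluidic capillary electrophoresis; IC50 from multi-concentration inhibition.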

First: O=C(O)C[C@H](NC(=O)c1csc(-c2cccc(Cl)c2Cl)n1)c1ccc(Cl)cc1Cl [Example 23, (S)-3-(2,4-Dichloro-phenyl)-3-{[2-(2,3-dichloro-phenyl)-thiazole-4-carbonyl]-amino}-propionic acid]
Second: O=C(O)C[C@H](NC(=O)c1csc(-c2ccc(Cl)cc2)n1)c1ccc(Cl)cc1Cl [Example 102, (S)-3-{[2-(4-Chloro-phenyl)-thiazole-4-carbonyl]-amino}-3-(2,4-dichloro-phenyl)-propionic acid]
The IC50 of the first is 4.8-fold lower: 555 nM for the first, 2680 nM for the second.

Compared with `O=C(O)CC(NC(=O)c1csc(-c2cccc(Cl)c2Cl)n1)C1CCCCC1` (centres unmarked) [Example 130, 3-Cyclohexyl-3-{[2-(2,3-dichloro-phenyl)-thiazole-4-carbonyl]-amino}-propionic acid], `O=C(O)CC(NC(=O)c1csc(-c2ccc(Cl)cc2)n1)C1CCCCC1` (centres unmarked) [Example 126, 3-{[2-(4-Chloro-phenyl)-thiazole-4-carbonyl]-amino}-3-cyclohexyl-propionic acid] is 3.6-fold higher in IC50: 1100 nM for the first, 3940 nM for the second.

`O=C(O)C[C@H](NC(=O)c1csc(-c2ccccc2)n1)c1ccccc1F` [Example 35, (S)-3-(2-Fluoro-phenyl)-3-[(2-phenyl-thiazole-4-carbonyl)-amino]-propionic acid] and `O=C(O)C[C@H](NC(=O)c1csc(-c2cccc(Cl)c2)n1)c1ccccc1F` [Example 92, (S)-3-{[2-(3-Chloro-phenyl)-thiazole-4-carbonyl]-amino}-3-(2-fluoro-phenyl)-propionic acid] are within 1.5-fold of each other in IC50: 1480 nM for the first, 1310 nM for the second.

Going from `Cc1ccc([C@H](CC(=O)O)NC(=O)c2nc(-c3ccccc3)cs2)cc1` [Example 11, (S)-3-[(4-Phenyl-thiazole-2-carbonyl)-amino]-3-p-tolyl-propionic acid] to `Cc1ccccc1-c1nc(C(=O)N[C@@H](CC(=O)O)c2cccc(Cl)c2Cl)cs1` [Example 12, (S)-3-(2,3-Dichloro-phenyl)-3-[(2-o-tolyl-thiazole-4-carbonyl)-amino]-propionic acid], the IC50 falls from 404 nM to 85 nM (4.8-fold).
